According to patent publication US20250101028A1, “HETEROCYCLIC COMPOUNDS, COMPOSITIONS THEREOF, AND METHODS OF TREATMENT THEREWITH” (BeiGene, Ltd., priority 2022, published 2025):

What follows are compounds tested against T1, GST-tagged GDP-loaded KRAS G12V (amino acids 1-169) (Homo sapiens, UniProt P01116, G12V) (assay: KRAS G12V probe displacement assay (TR-FRET)). Conditions: displacement of biotinylated probe 2 from GDP-loaded KRAS G12V.
T1 construct: GST-tagged GDP-loaded KRAS G12V (amino acids 1-169); made in house; host or cells: E. coli
T1 sequence (P01116 1-169 isoform P01116-2 G12V): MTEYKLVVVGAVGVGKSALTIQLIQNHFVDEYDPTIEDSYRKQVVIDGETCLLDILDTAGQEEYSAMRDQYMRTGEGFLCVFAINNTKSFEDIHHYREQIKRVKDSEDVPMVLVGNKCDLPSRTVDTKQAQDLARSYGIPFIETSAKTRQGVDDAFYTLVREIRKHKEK
Type: binding
How it was run: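 Probe displacement read as TR-FRET (665/620 nm) with anti-GST-Tb and streptavidin-XL665, IC50 from four-parameter logistic fit. Compound preincubated 1 h, 24 °C, with E. coli-expressed KRAS 1-169: WT at 3 nM with 60 nM probe 1, G12V at 2 nM with 2.5 nM probe 2, pH 7.5.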
`Nc1nc2c(-c3c(C(F)(F)F)cc4c(N5CC[C@H](F)C5)nc(OC[C@@]56CCCN5C[C@H](F)C6)nc4c3F)ccc(F)c2s1` [Example 52, 7-fluoro-4-(8-fluoro-4-((S)-3-fluoropyrrolidin-1-yl)-2-(((2R,7aS)-2-fluorotetrahydro-1H-pyrrolizin-7a(5H)-yl)methoxy)-6-(trifluoromethyl)quinazolin-7-yl)benzo[d]thiazol-2-amine] showed an IC50 of 0.019 µM.
`Nc1nc2c(-c3c(C(F)(F)F)cc4c(N5CCC(F)(F)C5)nc(OC[C@@]56CCCN5C[C@H](F)C6)nc4c3F)ccc(F)c2s1` [Example 53, 4-(4-(3,3-difluoropyrrolidin-1-yl)-8-fluoro-2-(((2R,7aS)-2-fluorotetrahydro-1H-pyrrolizin-7a(5H)-yl)methoxy)-6-(trifluoromethyl)quinazolin-7-yl)-7-fluorobenzo[d]thiazol-2-amine] was tested, and the IC50 was 0.012 µM.
`C[C@@H]1CCN(c2nc(OC[C@@]34CCCN3C[C@H](F)C4)nc3c(F)c(-c4ccc(F)c5sc(N)nc45)c(C(F)(F)F)cc23)C1` [Example 54, 7-fluoro-4-(8-fluoro-2-(((2R,7aS)-2-fluorotetrahydro-1H-pyrrolizin-7a(5H)-yl)methoxy)-4-((R)-3-methylpyrrolidin-1-yl)-6-(trifluoromethyl)quinazolin-7-yl)benzo[d]thiazol-2-amine] showed an IC50 of 0.041 µM.
`C[C@@H]1CCCN1c1nc(OC[C@@]23CCCN2C[C@H](F)C3)nc2c(F)c(-c3ccc(F)c4sc(N)nc34)c(C(F)(F)F)cc12` [Example 55, 7-fluoro-4-(8-fluoro-2-(((2R,7aS)-2-fluorotetrahydro-1H-pyrrolizin-7a(5H)-yl)methoxy)-4-((R)-2-methylpyrrolidin-1-yl)-6-(trifluoromethyl)quinazolin-7-yl)benzo[d]thiazol-2-amine] showed an IC50 of 0.168 µM.
In the case of `C[C@H]1CCCN1c1nc(OC[C@@]23CCCN2C[C@H](F)C3)nc2c(F)c(-c3ccc(F)c4sc(N)nc34)c(C(F)(F)F)cc12` [Example 56, 7-fluoro-4-(8-fluoro-2-(((2R,7aS)-2-fluorotetrahydro-1H-pyrrolizin-7a(5H)-yl)methoxy)-4-((S)-2-methylpyrrolidin-1-yl)-6-(trifluoromethyl)quinazolin-7-yl)benzo[d]thiazol-2-amine], the IC50 is reported as 0.022 µM.
`CC1(C)CCCN1c1nc(OC[C@@]23CCCN2C[C@H](F)C3)nc2c(F)c(-c3ccc(F)c4sc(N)nc34)c(C(F)(F)F)cc12` [Example 57, 4-(4-(2,2-dimethylpyrrolidin-1-yl)-8-fluoro-2-(((2R,7aS)-2-fluorotetrahydro-1H-pyrrolizin-7a(5H)-yl)methoxy)-6-(trifluoromethyl)quinazolin-7-yl)-7-fluorobenzo[d]thiazol-2-amine] showed an IC50 of 0.18 µM.
Compound `CC[C@@H]1CCCN1c1nc(OC[C@@]23CCCN2C[C@H](F)C3)nc2c(F)c(-c3ccc(F)c4sc(N)nc34)c(C(F)(F)F)cc12` [Example 58, 4-(4-((R)-2-ethylpyrrolidin-1-yl)-8-fluoro-2-(((2R,7aS)-2-fluorotetrahydro-1H-pyrrolizin-7a(5H)-yl)methoxy)-6-(trifluoromethyl)quinazolin-7-yl)-7-fluorobenzo[d]thiazol-2-amine] has an IC50 of 0.04 µM.
For `CC[C@H]1CCCN1c1nc(OC[C@@]23CCCN2C[C@H](F)C3)nc2c(F)c(-c3ccc(F)c4sc(N)nc34)c(C(F)(F)F)cc12` [Example 59, 4-(4-((S)-2-ethylpyrrolidin-1-yl)-8-fluoro-2-(((2R,7aS)-2-fluorotetrahydro-1H-pyrrolizin-7a(5H)-yl)methoxy)-6-(trifluoromethyl)quinazolin-7-yl)-7-fluorobenzo[d]thiazol-2-amine], the IC50 was 0.027 µM.
`N#CCC1CCN(c2nc(OC[C@@]34CCCN3C[C@H](F)C4)nc3c(F)c(-c4ccc(F)c5sc(N)nc45)c(C(F)(F)F)cc23)C1` (stereo partly drawn) [Example 61, 2-(1-(7-(2-amino-7-fluorobenzo[d]thiazol-4-yl)-8-fluoro-2-(((2R,7aS)-2-fluorotetrahydro-1H-pyrrolizin-7a(5H)-yl)methoxy)-6-(trifluoromethyl)quinazolin-4-yl)pyrrolidin-3-yl)acetonitrile] was tested, and the IC50 was 0.014 µM.
Work on `Nc1nc2c(-c3c(C(F)(F)F)cc4c(N5CC6CC5C6)nc(OC[C@@]56CCCN5C[C@H](F)C6)nc4c3F)ccc(F)c2s1` [Example 62, 4-(4-(2-azabicyclo[2.1.1]hexan-2-yl)-8-fluoro-2-(((2R,7aS)-2-fluorotetrahydro-1H-pyrrolizin-7a(5H)-yl)methoxy)-6-(trifluoromethyl)quinazolin-7-yl)-7-fluorobenzo[d]thiazol-2-amine] yielded an IC50 of 0.022 µM.
Compound `Nc1nc2c(-c3c(C(F)(F)F)cc4c(N5CC[C@@H](O)C5)nc(OC[C@@]56CCCN5C[C@H](F)C6)nc4c3F)ccc(F)c2s1` [Example 63, (3R)-1-(7-(2-amino-7-fluorobenzo[d]thiazol-4-yl)-8-fluoro-2-(((2R,7aS)-2-fluorotetrahydro-1H-pyrrolizin-7a(5H)-yl)methoxy)-6-(trifluoromethyl)quinazolin-4-yl)pyrrolidin-3-ol] has an IC50 of 0.011 µM.
For `Nc1nc2c(-c3c(C(F)(F)F)cc4c(N5CC[C@H](O)C5)nc(OC[C@@]56CCCN5C[C@H](F)C6)nc4c3F)ccc(F)c2s1` [Example 64, (3S)-1-(7-(2-amino-7-fluorobenzo[d]thiazol-4-yl)-8-fluoro-2-(((2R,7aS)-2-fluorotetrahydro-1H-pyrrolizin-7a(5H)-yl)methoxy)-6-(trifluoromethyl)quinazolin-4-yl)pyrrolidin-3-ol], the IC50 was 0.0043 µM.
`Nc1nc2c(-c3c(C(F)(F)F)cc4c(N5CC[C@@H](CO)C5)nc(OC[C@@]56CCCN5C[C@H](F)C6)nc4c3F)ccc(F)c2s1` [Example 65, ((3R)-1-(7-(2-amino-7-fluorobenzo[d]thiazol-4-yl)-8-fluoro-2-(((2R,7aS)-2-fluorotetrahydro-1H-pyrrolizin-7a(5H)-yl)methoxy)-6-(trifluoromethyl)quinazolin-4-yl)pyrrolidin-3-yl)methanol] showed an IC50 of 0.0041 µM.
In the case of `Nc1nc2c(-c3c(C(F)(F)F)cc4c(N5CC[C@H](CO)C5)nc(OC[C@@]56CCCN5C[C@H](F)C6)nc4c3F)ccc(F)c2s1` [Example 66, ((3S)-1-(7-(2-amino-7-fluorobenzo[d]thiazol-4-yl)-8-fluoro-2-(((2R,7aS)-2-fluorotetrahydro-1H-pyrrolizin-7a(5H)-yl)methoxy)-6-(trifluoromethyl)quinazolin-4-yl)pyrrolidin-3-yl)methanol], the IC50 is reported as 0.0077 µM.
With `Nc1nc2c(-c3c(C(F)(F)F)cc4c(N5CCCCC5)nc(OC[C@@]56CCCN5C[C@H](F)C6)nc4c3F)ccc(F)c2s1` [Example 67, 7-fluoro-4-(8-fluoro-2-(((2R,7aS)-2-fluorotetrahydro-1H-pyrrolizin-7a(5H)-yl)methoxy)-4-(piperidin-1-yl)-6-(trifluoromethyl)quinazolin-7-yl)benzo[d]thiazol-2-amine] the IC50 was 0.03 µM.
`CC1(C#N)CCN(c2nc(OC[C@@]34CCCN3C[C@H](F)C4)nc3c(F)c(-c4ccc(F)c5sc(N)nc45)c(C(F)(F)F)cc23)CC1` [Example 69, 1-(7-(2-amino-7-fluorobenzo[d]thiazol-4-yl)-8-fluoro-2-(((2R,7aS)-2-fluorotetrahydro-1H-pyrrolizin-7a(5H)-yl)methoxy)-6-(trifluoromethyl)quinazolin-4-yl)-4-methylpiperidine-4-carbonitrile] gave an IC50 of 0.017 µM.
With `N#CC1(F)CCN(c2nc(OC[C@@]34CCCN3C[C@H](F)C4)nc3c(F)c(-c4ccc(F)c5sc(N)nc45)c(C(F)(F)F)cc23)CC1` [Example 70, 1-(7-(2-amino-7-fluorobenzo[d]thiazol-4-yl)-8-fluoro-2-(((2R,7aS)-2-fluorotetrahydro-1H-pyrrolizin-7a(5H)-yl)methoxy)-6-(trifluoromethyl)quinazolin-4-yl)-4-fluoropiperidine-4-carbonitrile] the IC50 was 0.0075 µM.
`N#CCC1CCN(c2nc(OC[C@@]34CCCN3C[C@H](F)C4)nc3c(F)c(-c4ccc(F)c5sc(N)nc45)c(C(F)(F)F)cc23)CC1` [Example 71, 2-(1-(7-(2-amino-7-fluorobenzo[d]thiazol-4-yl)-8-fluoro-2-(((2R,7aS)-2-fluorotetrahydro-1H-pyrrolizin-7a(5H)-yl)methoxy)-6-(trifluoromethyl)quinazolin-4-yl)piperidin-4-yl)acetonitrile] was tested, and the IC50 was 0.01 µM.
`N#CC1CCN(c2nc(OC[C@@]34CCCN3C[C@H](F)C4)nc3c(F)c(-c4ccc(F)c5sc(N)nc45)c(C(F)(F)F)cc23)CC1F` (stereo partly drawn) [Example 72, 1-(7-(2-amino-7-fluorobenzo[d]thiazol-4-yl)-8-fluoro-2-(((2R,7aS)-2-fluorotetrahydro-1H-pyrrolizin-7a(5H)-yl)methoxy)-6-(trifluoromethyl)quinazolin-4-yl)-3-fluoropiperidine-4-carbonitrile] was tested, and the IC50 was 0.002 µM.
In the case of `CC1CN(c2nc(OC[C@@]34CCCN3C[C@H](F)C4)nc3c(F)c(-c4ccc(F)c5sc(N)nc45)c(C(F)(F)F)cc23)CCC1C#N` (stereo partly drawn) [Example 73, 1-(7-(2-amino-7-fluorobenzo[d]thiazol-4-yl)-8-fluoro-2-(((2R,7aS)-2-fluorotetrahydro-1H-pyrrolizin-7a(5H)-yl)methoxy)-6-(trifluoromethyl)quinazolin-4-yl)-3-methylpiperidine-4-carbonitrile], the IC50 is reported as 0.0068 µM.
For `N#C[C@@H]1CCCN(c2nc(OC[C@@]34CCCN3C[C@H](F)C4)nc3c(F)c(-c4ccc(F)c5sc(N)nc45)c(C(F)(F)F)cc23)C1` [Example 76, (3R)-1-(7-(2-amino-7-fluorobenzo[d]thiazol-4-yl)-8-fluoro-2-(((2R,7aS)-2-fluorotetrahydro-1H-pyrrolizin-7a(5H)-yl)methoxy)-6-(trifluoromethyl)quinazolin-4-yl)piperidine-3-carbonitrile], the IC50 was 0.021 µM.
